Data from patent US11440913B2, “Aminoimidazopyridazines as kinase inhibitors” (BRISTOL-MYERS SQUIBB COMPANY, priority 2017, dated 2022).
Counter-ions that a name gives are not always drawn. Like-named read-outs stand apart in the source and are kept apart here.

Experiments:
[1] = target: His-GST-TVMV-hRIPK1(1-324) (Homo sapiens (Human), UniProt Q13546); assay: RIPK1 HTRF Binding Assay; details: HTRF binding, 1 h at rt; read-out: RIPK1 (IC50)
How it was run: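 HTRF probe-displacement binding: 1 nM His-GST-TVMV-hRIPK1(1-324) (baculovirus construct), 90.6 nM probe, 0.2 nM anti-GST-Tb in 20 mM HEPES, 10 mM MgCl2, 0.015% Brij-35, 4 mM DTT, 0.05 mg/mL BSA. Incubated 1 h at rt; FRET 520/495 nm ratio, inhibition relative to DMSO-only wells.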

[2] = system: MLKL phosphorylation in HT29-L23 human colorectal adenocarcinoma cells; assay: MLKL Phosphorylation High-Content Assay; format: cell-based; details: 6 h, necroptosis induced with TNFα, SMAC mimetic and Z-VAD, read-out: pMLKL (IC50)
How it was run: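 HT29-L23 cells pretreated 30 min at 37 °C with compound (6.25 to 0.106 μM final), then necroptosis induced with TNFα 35 ng/mL, SMAC mimetic 700 nM and Z-VAD 140 nM for 6 h. Fixed cells immunostained for MLKL pS358 and imaged; IC50 and Ymax from 4-parameter logistic fit.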

Sequence of His-GST-TVMV-hRIPK1(1-324) (Q13546 1-324): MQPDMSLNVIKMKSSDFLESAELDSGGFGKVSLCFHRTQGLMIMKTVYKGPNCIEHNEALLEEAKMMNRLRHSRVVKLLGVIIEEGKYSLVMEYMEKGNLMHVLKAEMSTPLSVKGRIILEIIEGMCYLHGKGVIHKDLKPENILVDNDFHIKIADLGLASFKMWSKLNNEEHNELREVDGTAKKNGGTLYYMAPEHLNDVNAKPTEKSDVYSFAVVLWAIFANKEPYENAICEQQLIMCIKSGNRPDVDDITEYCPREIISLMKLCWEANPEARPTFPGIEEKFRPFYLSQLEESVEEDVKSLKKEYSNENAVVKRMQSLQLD

CC(=O)Nc1cn2nc(-c3cnc(C)c(C(=O)NCc4cc(F)cc(F)c4OC4CCOC(C)C4)c3)ccc2n1 (centres unmarked) [Example 188, N-({3,5-difluoro-2-[(2-methyloxan-4-yl)oxy]phenyl}methyl)-5-{2-acetamidoimidazo [1,2-b]pyridazin-6-yl}-2-methylpyridine-3-carboxamide]
IC50 [1]: 22 nM | IC50 ([2]; Homo sapiens): 217 nM

CC(=O)Nc1cn2nc(-c3cnc(C)c(C(=O)NCc4cccc(F)c4OCC4CC4)c3)ccc2n1 [Example 212, N-{[2-(cyclopropylmethoxy)-3-fluorophenyl]methyl}-5-{2-acetamidoimidazo [1,2-b]pyridazin-6-yl}-2-methylpyridine-3-carboxamide]
IC50 [1]: 8 nM | IC50 ([2]; Homo sapiens): 4 nM

CC(=O)Nc1cn2nc(-c3ccc(F)c(C(=O)N[C@@H](C)c4cc(OC(F)(F)F)ccc4F)c3F)ccc2n1 [Example 379, 3-{2-acetamidoimidazo [1,2-b]pyridazin-6-yl}-2,6-difluoro-N-[(1S)-1-[2-fluoro-5-(trifluoromethoxy)phenyl]ethyl] benzamide]
IC50 [1]: 1 nM | IC50 ([2]; Homo sapiens): 5 nM

CC(=O)Nc1cn2nc(-c3cc(C(=O)NCc4cccc(OC(F)(F)F)c4)c(C)nc3C)ccc2n1 [Example 88, 5-{2-acetamidoimidazo[1,2-b]pyridazin-6-yl}-2,6-dimethyl-N-{[3-(trifluorometh-oxy)phenyl]methyl}pyridine-3-carboxamide]
IC50 [1]: 25 nM | IC50 ([2]; Homo sapiens): 42 nM

CC(=O)Nc1cn2nc(-c3cnc(C)c(C(=O)NCc4cc(F)ccc4OCC4CCCC4)c3)ccc2n1 [Example 218, N-{[2-(cyclopentylmethoxy)-5-fluorophenyl]methyl}-5-{2-acetamidoimidazo[1,2-b]pyridazin-6-yl}-2-methylpyridine-3-carboxamide]
IC50 [1]: 6 nM | IC50 ([2]; Homo sapiens): 15 nM

COc1ncc(-c2ccc3nc(NC(C)=O)cn3n2)cc1C(=O)NCc1c(F)cccc1OC1CCOCC1 [Example 128, 5-{2-acetamidoimidazo[1,2-b]pyridazin-6-yl}-N-{[2-fluoro-6-(oxan-4-yloxy)phenyl]methyl}-2-methoxypyridine-3-carboxamide, TFA]
IC50 [1]: 9 nM | IC50 [2]: 64 nM

COc1ncc(-c2ccc3nc(NC(C)=O)cn3n2)cc1C(=O)NCc1ccc(F)cc1OC(F)(F)F [Example 120, 5-{2-acetamidoimidazo[1,2-b]pyridazin-6-yl}-N-{[4-fluoro-2-(trifluoromethoxy)phenyl]methyl}-2-methoxypyridine-3-carboxamide]
IC50 [1]: 170 nM | IC50 ([2]; Homo sapiens): 383 nM

CC(=O)Nc1cn2nc(-c3cnc(C)c(C(=O)NCc4c(F)cccc4OCC(F)(F)F)c3)ccc2n1 [Example 190, 5-{2-acetamidoimidazo[1,2-b]pyridazin-6-yl}-N-{[2-fluoro-6-(2,2,2-trifluoroethoxy)phenyl]methyl}-2-methylpyridine-3-carboxamide]
IC50 [1]: 23 nM | IC50 ([2]; Homo sapiens): 35 nM

COc1ncc(-c2ccc3nc(NC(C)=O)cn3n2)cc1C(=O)NCc1c(F)cccc1OCC(F)(F)F [Example 102, 5-{2-acetamidoimidazo[1,2-b]pyridazin-6-yl}-N-{[2-fluoro-6-(2,2,2-trifluoroethoxy)phenyl]methyl}-2-methoxypyridine-3-carboxamide]
IC50 [1]: 7 nM | IC50 ([2]; Homo sapiens): 10 nM

CC(=O)Nc1cn2nc(-c3cnc(C)c(C(=O)NCc4cc(F)cc(F)c4O[C@H]4CCOC4)c3)ccc2n1 [Example 187, N-({3,5-difluoro-2-[(3S)-oxolan-3-yloxy]phenyl}methyl)-5-{2-acetamidoimidazo [1,2-b]pyridazin-6-yl}-2-methylpyridine-3-carboxamide]
IC50 [1]: 18 nM | IC50 ([2]; Homo sapiens): 148 nM

CNCC(=O)Nc1cn2nc(-c3cc(F)c(C)c(C(=O)NCC[C@H](O)c4ccc(Cl)cc4)c3)ccc2n1 [Example 363, N-[(3S)-3-(4-chlorophenyl)-3-hydroxypropyl]-3-fluoro-2-methyl-5-{2-[2-(methylamino)acetamido]imidazo[1,2-b]pyridazin-6-yl}benzamide]
IC50 [1]: 65 nM | IC50 ([2]; Homo sapiens): 47 nM

CC(=O)Nc1cn2nc(-c3cnc(C)c(C(=O)Nc4cnn(C(C)c5ccc(F)cc5)c4)c3)ccc2n1 (centres unmarked) [Example 348, 5-{2-acetamidoimidazo[1,2-b]pyridazin-6-yl}-N-{1-[1-(4-fluorophenyl)ethyl]-1H-pyrazol-4-yl}-2-methylpyridine-3-carboxamide]
IC50 [1]: 2 nM | IC50 ([2]; Homo sapiens): 27 nM

CCc1ncc(-c2ccc3nc(NC(C)=O)cn3n2)cc1C(=O)NCc1cc(C(F)(F)F)ccc1F [Example 329, 5-{2-acetamidoimidazo[1,2-b]pyridazin-6-yl}-2-ethyl-N-{[2-fluoro-5-(trifluoromethyl)phenyl]methyl}pyridine-3-carboxamide]
IC50 [1]: 53 nM | IC50 ([2]; Homo sapiens): 88 nM

CC(=O)Nc1cn2nc(-c3cc(F)c(C)c(C(=O)NCc4cc(OC(F)(F)F)ccc4F)c3)ccc2n1 [Example 359, 5-{2-acetamidoimidazo [1,2-b]pyridazin-6-yl}-3-fluoro-N-{[2-fluoro-5-(trifluoromethoxy)phenyl]methyl}-2-methylbenzamide]
IC50 [1]: 78 nM | IC50 ([2]; Homo sapiens): 5 nM

CC(=O)Nc1cn2nc(-c3cnc(C)c(C(=O)NCc4cc(F)cc(F)c4OC4CCCOC4)c3)ccc2n1 (centres unmarked) [Example 186, N-{[3,5-difluoro-2-(oxan-3-yloxy)phenyl]methyl}-5-{2-acetamidoimidazo[1,2-b]pyridazin-6-yl}-2-methylpyridine-3-carboxamide]
IC50 [1]: 15 nM | IC50 ([2]; Homo sapiens): 96 nM

[2H]C([2H])([2H])Oc1ncc(-c2ccc3nc(NC(C)=O)cn3n2)cc1C(=O)NCc1ccc(F)c(F)c1OCC1CC1 [Example 53, N-{[2-(cyclopropylmethoxy)-3,4-difluorophenyl]methyl}-5-{2-acetamidoimidazo[1,2-b]pyridazin-6-yl}-2-(D3)methoxypyridine-3-carboxamide]
IC50 [1]: 62 nM | IC50 ([2]; Homo sapiens): 81 nM

[2H]C([2H])(NC(=O)c1cc(-c2ccc3nc(NC(C)=O)cn3n2)c(C)nc1C)c1cc(C(F)(F)F)ccc1F [Example 75, 5-{2-acetamidoimidazo[1,2-b]pyridazin-6-yl}-N-{[2-fluoro-5-(trifluoromethyl)phenyl](deutero)methyl}-2,6-dimethylpyridine-3-carboxamide]
IC50 [1]: 11 nM | IC50 ([2]; Homo sapiens): 32 nM

CCC(=O)Nc1cn2nc(-c3cnc(OC)c(C(=O)NCc4ccc(F)c(F)c4OCC4CC4)c3)ccc2n1 [Example 249, N-{[2-(cyclopropylmethoxy)-3,4-difluorophenyl]methyl}-2-methoxy-5-{2-propanamidoimidazo[1,2-b]pyridazin-6-yl}pyridine-3-carboxamide]
IC50 [1]: 29 nM | IC50 ([2]; Homo sapiens): 132 nM

[2H]C([2H])([2H])[C@H](NC(=O)c1cc(-c2ccc3nc(NC(C)=O)cn3n2)cnc1C)c1cc(C(F)(F)F)ccc1F [Example 196, 5-{2-acetamidoimidazo[1,2-b]pyridazin-6-yl}-N-[(1S)-1-[2-fluoro-5-(trifluoromethyl)phenyl](2,2,2-deutero)ethyl]-2-methylpyridine-3-carboxamide]
IC50 [1]: 45 nM | IC50 ([2]; Homo sapiens): 5 nM

CC(=O)Nc1cn2nc(-c3cnc(Cl)c(C(=O)NCc4cc(C(F)(F)F)ccc4Cl)c3)ccc2n1 [Example 274, 2-chloro-N-{[2-chloro-5-(trifluoromethyl)phenyl]methyl}-5-{2-acetamidoimidazo[1,2-b]pyridazin-6-yl}pyridine-3-carboxamide, TFA]
IC50 [1]: 11 nM | IC50 ([2]; Homo sapiens): 31 nM

COc1nc(C)c(-c2ccc3nc(NC(C)=O)cn3n2)cc1C(=O)NCc1cccnc1OCC1CCCC1 [Example 313, N-{[2-(cyclopentylmethoxy)pyridin-3-yl]methyl}-5-{2-acetamidoimidazo[1,2-b]pyridazin-6-yl}-2-methoxy-6-methylpyridine-3-carboxamide]
IC50 [1]: 9 nM | IC50 ([2]; Homo sapiens): 22 nM

[2H]C([2H])(NC(=O)c1cc(-c2ccc3nc(NC(=O)CO)cn3n2)cnc1C)c1cc(F)cc(F)c1OC1CCOCC1 [Example 184, N-{[3,5-difluoro-2-(oxan-4-yloxy)phenyl](deutero)methyl}-5-[2-(2-hydroxyacetamido)imidazo [1,2-b]pyridazin-6-yl]-2-methylpyridine-3-carboxamide]
IC50 [1]: 9 nM | IC50 ([2]; Homo sapiens): 177 nM

COc1nc(C)c(-c2ccc3nc(NC(C)=O)cn3n2)cc1C(=O)NCc1cccc(C(F)(F)F)c1 [Example 305, 5-{2-acetamidoimidazo[1,2-b]pyridazin-6-yl}-2-methoxy-6-methyl-N-{[3-(trifluoromethyl)phenyl]methyl}pyridine-3-carboxamide]
IC50 [1]: 41 nM | IC50 ([2]; Homo sapiens): 77 nM

[2H]C([2H])(NC(=O)c1cc(-c2ccc3nc(NC(C)=O)cn3n2)c(C)nc1C)c1cc(OC(F)(F)F)ccc1F [Example 76, 5-{2-acetamidoimidazo[1,2-b]pyridazin-6-yl}-N-{[2-fluoro-5-(trifluorometh-oxy)phenyl](deutero)methyl}-2,6-dimethylpyridine-3-carboxamide]
IC50 [1]: 3 nM | IC50 ([2]; Homo sapiens): 8 nM

CC(=O)Nc1cn2nc(-c3ccc(C)c(C(=O)NCc4cc(C(=O)N5CCC(C)(C)C5)ccc4F)c3)ccc2n1 [Example 406, N-{[5-(3,3-dimethylpyrrolidine-1-carbonyl)-2-fluorophenyl]methyl}-5-{2-acetamidoimidazo [1,2-b]pyridazin-6-yl}-2-methylbenzamide]
IC50 [1]: 163 nM | IC50 ([2]; Homo sapiens): 454 nM
